This assay deals with human lung fibroblast collagenase. Kind of assay: Collagenase inhibitor assay (human lung fibroblast collagenase, 14C-acetylated Type I collagen fibril degradation). In kind it is biochemical. The following applies: Inhibition of human lung fibroblast collagenase (purified from WI-38 culture supernatants); 14C-acetylated rat skin Type I collagen substrate; 37°C overnight; read-out: IC₅₀. The protocol:
The assay tubes are incubated at 37 °C overnight.

On to `CC[C@H](N[C@@H](CC(C)C)C(=O)NC1CCCCCCCCCCNC1=O)P(=O)(O)O` (single isomer, unassigned) [Example E4], for which the IC50 was 0.166 µM. With `CCCCC(N[C@@H](CC(C)C)C(=O)NC1CCCCCCCCCCNC1=O)P(=O)(O)O` (stereo partly drawn) [Example E8, 3-[N-[N-(1-Phosphonopentyl)-(S)-leucyl]]-(-)-aminoazacyclotridecan-2-one], the IC50 is 9.49 µM. In the case of `CC[C@@H](N[C@@H](CC(C)C)C(=O)NC1CCCCCCCCCCNC1=O)P(=O)(O)O` (single isomer, unassigned) [Example E3C] it was 0.045 µM.

These data come from EP0401963A1, “Phosphonopeptides with collagenase inhibiting activity” (Beecham Group p.l.c., priority 1989, dated 1990).
